Source: paper PMC12527922, “Cocaine chemogenetics blunts drug-seeking by synthetic physiology” (Nature, 2025)
“And” between values parts separate entries of the source, which are not always exact repeats. Equal entries are not always repeated.

Columns and labels:
coca-GlyR [1] = target: T1, coca-GlyR (Homo sapiens, UniProt P23415+P36544, G175K/L141G/Y217F); experiment: [^3H]ASEM displacement, membranes of HEK293 cells expressing coca-GlyR; format: binding; details: for Ki: [^3H]ASEM competition, two-site fit
T1 construct: expressed in transfected cells; host or cells: HEK293 (ATCC CRL-1573), pcDNA3.1
Experimental: Cells were suspended in Tris-HCl 50 mM pH 7.4 supplemented with protease inhibitor cocktail (1:100, Sigma-Aldrich). HEK293 cells were disrupted with a 6 Polytron homogenizer (Kinematica). Homogenates were centrifuged at 48,000g (50 min, 4 °C) and washed twice in the same conditions to isolate the membrane fraction. Protein was quantified using the bicinchoninic acid method (Pierce). […] Free and membrane-bound radioligands were separated by rapid filtration of 500 μl aliquots in a 96-well plate harvester (Brandel) and washed with 2 ml of ice-cold Tris-HCl buffer. Microscint-20 scintillation liquid (65 μl per well, PerkinElmer) was added to the filter plates, plates were incubated overnight at room temperature and radioactivity counts were determined in the MicroBeta2 plate counter (PerkinElmer) with an efficiency of 41%. Two-site competition curves were fitted using Prism 10 (GraphPad). Ki values were calculated using the Cheng–Prusoff equation.

coca-GlyR [2] = target: T1, coca-GlyR; experiment: Whole-cell voltage-clamp in HEK293 cells, coca-GlyR; format: cell-based; details: transfected HEK293
Experimental: Channel mutants and agonists were further characterized in whole-cell voltage-clamp experiments performed on HEK293 cells. At passage 44–48, cells were plated at low density (1 × 10^3 per cm^2) on poly-D-lysine-coated glass coverslips, then transfected in 10 cm^2 wells using the Fugene 6 transfection reagent (Roche) with DNA plasmids containing both an ion channel cDNA (pcDNA3.1, 2 µg per well) and cDNA for GFP (pCMV, 0.1 μg per well), followed by replacement of the medium after 3 h. Recordings were made 24–72 h after transfection.
Electrophysiological recordings were performed in whole-cell voltage-clamp mode, on an inverted fluorescence microscope (Olympus IX-51) using pClamp software and a […] amplifier (Molecular Devices). Electrophysiological data was filtered at 4 kHz, digitized at 10 kHz using a Digidata 1400 interface (Molecular Devices), recorded on a PC (Dell) and analysed using custom MATLAB software (MathWorks). Solutions were delivered from a gravity fed perfusion system through a capillary tube placed approximately […] from the recorded cell using an eight-way manifold pinch valve system (Nanion), which was controlled from the acquisition software. This allowed for up to seven concentrations of agonist to be tested. […]

multiple nAChR subtypes = details: cited from earlier work
[3] = target: coca-5HT3 (α7(L141G,G175K,Y210F,Y217F)–5HT3) (Homo sapiens, UniProt P36544, G175K/L141G/Y210F/Y217F); experiment: Membrane potential assay, coca-5HT3 in HEK293; details: for Response / Max normalized Response: coca-5HT3; for Max normalized Response: ED Fig 3b
Sequence of coca-5HT3 (α7(L141G,G175K,Y210F,Y217F)–5HT3) (P36544 23-224 L141G/G175K/Y210F/Y217F): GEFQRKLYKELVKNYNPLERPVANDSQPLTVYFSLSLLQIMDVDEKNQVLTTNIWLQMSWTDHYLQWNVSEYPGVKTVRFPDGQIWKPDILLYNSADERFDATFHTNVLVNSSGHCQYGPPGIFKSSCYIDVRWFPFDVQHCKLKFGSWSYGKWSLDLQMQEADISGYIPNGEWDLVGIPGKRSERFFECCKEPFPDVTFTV
Sequence of coca-5HT3 (α7(L141G,G175K,Y210F,Y217F)–5HT3) (P23979 242-489, further chain): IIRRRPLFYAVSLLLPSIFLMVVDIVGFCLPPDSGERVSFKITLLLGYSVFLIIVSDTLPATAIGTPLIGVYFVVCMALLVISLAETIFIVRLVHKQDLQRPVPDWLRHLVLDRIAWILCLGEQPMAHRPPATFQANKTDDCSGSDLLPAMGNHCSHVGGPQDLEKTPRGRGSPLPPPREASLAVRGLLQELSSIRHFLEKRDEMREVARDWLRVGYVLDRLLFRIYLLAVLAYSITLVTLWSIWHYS

T1 sequence (P36544+P23415 fused P36544:L141G/P36544:G175K/P36544:Y217F): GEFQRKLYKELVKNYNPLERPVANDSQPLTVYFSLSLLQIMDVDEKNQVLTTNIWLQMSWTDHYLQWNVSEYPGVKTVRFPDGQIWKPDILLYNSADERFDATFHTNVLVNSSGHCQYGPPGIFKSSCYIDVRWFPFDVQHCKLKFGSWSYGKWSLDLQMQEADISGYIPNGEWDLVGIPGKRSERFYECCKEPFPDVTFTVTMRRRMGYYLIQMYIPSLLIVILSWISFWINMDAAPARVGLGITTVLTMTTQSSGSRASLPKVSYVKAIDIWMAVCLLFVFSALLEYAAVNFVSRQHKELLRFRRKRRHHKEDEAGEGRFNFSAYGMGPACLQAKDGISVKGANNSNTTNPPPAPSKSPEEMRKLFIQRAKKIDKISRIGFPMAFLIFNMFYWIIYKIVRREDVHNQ

For `COC(=O)[C@H]1[C@@H](OC(=O)c2ccccc2)C[C@@H]2CC[C@H]1N2C` [cocaine], the “binding to coca-GlyR” value (coca-GlyR [1]) was “biphasic manner”, the Ki (coca-GlyR [1]; KiH) was 0.014 ± 0.01 nM and the Ki (coca-GlyR [1]; KiL) was 850 ± 500 nM. The high-affinity binding sites (coca-GlyR [1]; biphasic competition curve, [^3H]ASEM) was 37.9 ± 0.5%, the “currents from coca-GlyR” value (coca-GlyR [2]) was “large, sustained currents” and the “activity at nAChR subtypes” value (multiple nAChR subtypes) was “low-affinity antagonist”. For the same compound, the EC50 ([3]; EC50 at a75HT3 L141G G175K Y210F Y217F, AVG, sheet 1e) was 1580 nM, the EC50 ([3]; EC50 at a75HT3 L141G G175K Y210F Y217F, sheet 1e, single determinations) was 1800 nM and 1000 nM and 2640 nM and 810 nM and 1250 nM and 840 nM and 2800 nM and the Response ([3]; conc 0.0137 uM, ED Fig. 2c) was 0.067. It also gave a Response ([3]; conc 0.0137174 uM, ED Fig. 2b) of 0.067, a Response ([3]; conc 0.123 uM, ED Fig. 2c) of 0.063 and a Response ([3]; conc 0.123457 uM, ED Fig. 2b) of 0.063. For the same compound, the “Max normalized Response” value ([3]; conc 0.137 uM) was 0.07313, the Response ([3]; conc 0.37 uM, ED Fig. 2c) was 0.098 and the Response ([3]; conc 0.37037 uM, ED Fig. 2b) was 0.098. For the same compound, the Response ([3]; conc 0.457247 uM, ED Fig 3a) was 0.103, the Response ([3]; conc 1.11111 uM, ED Fig. 2b) was 0.363 and the Response ([3]; conc 1.37174 uM, ED Fig 3a) was 0.237. The Response ([3]; conc 3.33333 uM, ED Fig. 2b) was 0.825, the “Max normalized Response” value ([3]; conc 3.7 uM) was 0.5001 and the Response ([3]; conc 10 uM, ED Fig. 2b) was 1.02. The Response ([3]; conc 10 uM, ED Fig. 2c) was 1.023, the “Max normalized Response” value ([3]; conc 11.1 uM) was 0.7653 and the Response ([3]; conc 12.3457 uM, ED Fig 3a) was 1.106. For the same compound, the Response ([3]; conc 30 uM, ED Fig. 2b) was 0.86, the Response ([3]; conc 30 uM, ED Fig. 2c) was 0.864 and the “Max normalized Response” value ([3]; conc 33.3 uM) was 0.8419. The Response ([3]; conc 37.037 uM, ED Fig 3a) was 0.885, the “Max normalized Response” value ([3]; conc 100 uM) was 0.9656 and the EC50 ([3]; half-maximum effective concentration (EC50), HEK293, fluorescence membrane potential assay) was 1500 ± 300 nM. For the same compound, the “peak brain cocaine concentration relative to EC50 for coca-5HT3” value ([3]; intravenous dose in rats, Pan et al 1991) was “approximately 1.5 fold”.
